Data as given in patent US20260295053A1, “COMPOUNDS FOR DEGRADATION AND INHIBITION OF KRAS (G12D) PROTEIN” (Shenzhen Ionova Life Science Co., Ltd., priority 2023, published 2026).

Target: T1, KRAS (G12D) (Homo sapiens, UniProt P01116, G12D)
T1 construct: in-cell western with KRAS G12D antibody after 24 h
Test: KRAS (G12D) cellular degradation assay in AsPC-1 cells
Format: cell-based
Settings: 24 hours, antibody fluorescence (Odyssey CLX), DC50 half-maximal degradation concentration
Method in brief: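 Half-maximal degradation (DC50) and inhibition (IC50) concentrations are fitted from dose-response curves spanning […] to 1.5 nM final. KRAS G12D loss is measured by fluorescent antibody staining with β-actin reference after 24 h; growth is measured by ATP luminescence after a 6-day exposure.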

T1 sequence (P01116 1-188 isoform P01116-2 G12D): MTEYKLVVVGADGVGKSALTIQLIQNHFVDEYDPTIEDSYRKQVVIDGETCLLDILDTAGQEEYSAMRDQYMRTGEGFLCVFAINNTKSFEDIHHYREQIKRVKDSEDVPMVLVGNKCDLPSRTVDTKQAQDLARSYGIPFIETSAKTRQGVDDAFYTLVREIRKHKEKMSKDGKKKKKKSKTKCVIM

| SMILES | DC50 |
| --- | --- |
| CO[C@@H](C)COc1nc(N2C[C@@H]3C[C@H]2CN3)c2cc(C3CC3)c(-c3c(C)c(F)cc4[nH]ncc34)c(OCc3ccc(-c4cn([C@H](C(=O)N5C[C@H](O)C[C@H]5C(=O)N[C@H](C#Cc5cncc6ncsc56)CO)C(C)C)nn4)cc3)c2n1 [Example 118, (2S,4R)-1-((2S)-2-(4-(4-(((4-((1S,4S)-2,5-diazabicyclo[2.2.1]heptan-2-yl)-6-cyclopropyl-7-(6-fluoro-5-methyl-1H-indazol-4-yl)-2-((S)-2-methoxypropoxy)quinazolin-8-yl)oxy)methyl)phenyl)-1H-1,2,3-triazol-1-yl)-3-methylbutanoyl)-4-hydroxy-N—((R)-1-hydroxy-4-(thiazolo[4,5-c]pyridin-7-yl)but-3-yn-2-yl)pyrrolidine-2-carboxamide] | 10 to 100 nM |
| CCn1nccc1-c1ccc([C@@H](NC(=O)[C@@H]2C[C@@H](O)CN2C(=O)[C@H](C(C)C)n2cc(-c3ccc(COc4c(-c5c(C)c(F)cc6[nH]ncc56)c(C5CC5)cc5c(N(C)[C@@H]6CCNC6)nc(O[C@H]6C[C@H](OC)C6)nc45)cc3)nn2)[C@H](C)O)c2c1CC2 [Example 211, (2S,4R)-1-((2S)-2-(4-(4-(((6-cyclopropyl-7-(6-fluoro-5-methyl-1H-indazol-4-yl)-2-((1r,3R)-3-methoxycyclobutoxy)-4-(methyl((R)-pyrrolidin-3-yl)amino)quinazolin-8-yl)oxy)methyl)phenyl)-1H-1,2,3-triazol-1-yl)-3-methylbutanoyl)-N-((1R,2S)-1-(5-(1-ethyl-1H-pyrazol-5-yl)bicyclo[4.2.0]octa-1(6),2,4-trien-2-yl)-2-hydroxypropyl)-4-hydroxypyrrolidine-2-carboxamide] | < 10 nM |
| CCn1nccc1-c1ccc([C@@H](NC(=O)[C@@H]2C[C@@H](O)CN2C(=O)[C@H](C(C)C)n2cc(-c3ccc(COc4c(-c5c(C)c(F)cc6[nH]ncc56)c(C5CC5)cc5c(N6C[C@@H]7C[C@H]6CN7)nc(O[C@H]6C[C@H](OC)C6)nc45)cc3)nn2)[C@H](C)O)nc1 [Example 200, (2S,4R)-1-((2S)-2-(4-(4-(((4-((1S,4S)-2,5-diazabicyclo[2.2.1]heptan-2-yl)-6-cyclopropyl-7-(6-fluoro-5-methyl-1H-indazol-4-yl)-2-((1r,3S)-3-methoxycyclobutoxy)quinazolin-8-yl)oxy)methyl)phenyl)-1H-1,2,3-triazol-1-yl)-3-methylbutanoyl)-N-((1R,2S)-1-(5-(1-ethyl-1H-pyrazol-5-yl)pyridin-2-yl)-2-hydroxypropyl)-4-hydroxypyrrolidine-2-carboxamide] | < 10 nM |
| CO[C@@H](C)COc1nc(N2C[C@@H]3C[C@H]2CN3)c2cc(C3CC3)c(-c3c(C)c(F)cc4[nH]ncc34)c(OCc3ccc(-c4cn([C@H](C(=O)N5C[C@H](O)C[C@H]5C(=O)N[C@H](C#Cc5cccc6c5cnn6C)CO)C(C)C)nn4)cc3)c2n1 [Example 134, (2S,4R)-1-((2S)-2-(4-(4-(((4-((1S,4S)-2,5-diazabicyclo[2.2.1]heptan-2-yl)-6-cyclopropyl-7-(6-fluoro-5-methyl-1H-indazol-4-yl)-2-((S)-2-methoxypropoxy)quinazolin-8-yl)oxy)methyl)phenyl)-1H-1,2,3-triazol-1-yl)-3-methylbutanoyl)-4-hydroxy-N—((R)-1-hydroxy-4-(1-methyl-1H-indazol-4-yl)but-3-yn-2-yl)pyrrolidine-2-carboxamide] | 10 to 100 nM |
| CCn1nccc1-c1ccc([C@H](CO)NC(=O)[C@@H]2C[C@@H](O)CN2C(=O)[C@H](C(C)C)n2cc(-c3ccc(COc4c(-c5c(C)c(F)cc6[nH]ncc56)c(C5CC5)cc5c(N6CCNCCC6C)nc(OC[C@H](C)OC)nc45)cc3)nn2)cc1 (stereo in doubt) [Example 153, (2S,4R)-1-((2S)-2-(4-(4-(((6-cyclopropyl-7-(6-fluoro-5-methyl-1H-indazol-4-yl)-2-((S)-2-methoxypropoxy)-4-((S)-7-methyl-1,4-diazepan-1-yl)quinazolin-8-yl)oxy)methyl)phenyl)-1H-1,2,3-triazol-1-yl)-3-methylbutanoyl)-N—((R)-1-(4-(1-ethyl-1H-pyrazol-5-yl)phenyl)-2-hydroxyethyl)-4-hydroxypyrrolidine-2-carboxamide] | 10 to 100 nM |
| Cc1ncsc1-c1ccc([C@H](CO)NC(=O)[C@@H]2C[C@@H](O)CN2C(=O)[C@H](C(C)C)n2cc(-c3ccc(COc4c(-c5c(C)c(F)cc6[nH]ncc56)c(C5CC5)cc5c(N6CCCNCC6)nc(OC[C@H]6CCCO6)nc45)cc3)nn2)cc1 [Example 213, (2S,4R)-1-((2S)-2-(4-(4-(((6-cyclopropyl-4-(1,4-diazepan-1-yl)-7-(6-fluoro-5-methyl-1H-indazol-4-yl)-2-(((R)-tetrahydrofuran-2-yl)methoxy)quinazolin-8-yl)oxy)methyl)phenyl)-1H-1,2,3-triazol-1-yl)-3-methylbutanoyl)-4-hydroxy-N—((R)-2-hydroxy-1-(4-(4-methylthiazol-5-yl)phenyl)ethyl)pyrrolidine-2-carboxamide] | < 10 nM |

Other lines, results leading:

| DC50 | SMILES |
| --- | --- |
| 10 to 100 nM | CCn1nccc1-c1ccc([C@H](CO)NC(=O)[C@@H]2C[C@@H](O)CN2C(=O)[C@H](C(C)C)n2cc(-c3ccc(COc4c(-c5c(C)c(F)cc6[nH]ncc56)c(C5CC5)cc5c(N6C[C@H]7CN[C@H](C7)C6)nc(OC[C@H](C)OC)nc45)cc3)nn2)cc1 [Example 222, (2S,4R)-1-((2S)-2-(4-(4-(((4-((1R,5R)-3,6-diazabicyclo[3.2.1]octan-3-yl)-6-cyclopropyl-7-(6-fluoro-5-methyl-1H-indazol-4-yl)-2-((S)-2-methoxypropoxy)quinazolin-8-yl)oxy)methyl)phenyl)-1H-1,2,3-triazol-1-yl)-3-methylbutanoyl)-N—((R)-1-(4-(1-ethyl-1H-pyrazol-5-yl)phenyl)-2-hydroxyethyl)-4-hydroxypyrrolidine-2-carboxamide] |
| < 10 nM | CCn1nccc1-c1ccc([C@H](CO)NC(=O)[C@@H]2C[C@@H](O)CN2C(=O)[C@H](C(C)C)n2cc(-c3ccc(COc4c(-c5c(C)c(F)cc6[nH]ncc56)c(C5CC5)cc5c(N6CCC(O)CC6)nc(OC[C@H](C)OC)nc45)cc3)nn2)cc1 [Example 217, (2S,4R)-1-((2S)-2-(4-(4-(((6-cyclopropyl-7-(6-fluoro-5-methyl-1H-indazol-4-yl)-4-(4-hydroxypiperidin-1-yl)-2-((S)-2-methoxypropoxy)quinazolin-8-yl)oxy)methyl)phenyl)-1H-1,2,3-triazol-1-yl)-3-methylbutanoyl)-N—((R)-1-(4-(1-ethyl-1H-pyrazol-5-yl)phenyl)-2-hydroxyethyl)-4-hydroxypyrrolidine-2-carboxamide] |
| 10 to 100 nM | CCn1nccc1-c1ccc([C@H](CO)NC(=O)[C@@H]2C[C@@H](O)CN2C(=O)[C@H](C(C)C)n2cc(-c3ccc(COc4c(-c5c(C)c(F)cc6[nH]ncc56)c(C5CC5)cc5c(N6CC7CNCC7C6)nc(OC[C@H](C)OC)nc45)cc3)nn2)cc1 (stereo partly drawn) [Example 227, (2S,4R)-1-((2S)-2-(4-(4-(((6-cyclopropyl-7-(6-fluoro-5-methyl-1H-indazol-4-yl)-4-(hexahydropyrrolo[3,4-c]pyrrol-2(1H)-yl)-2-((S)-2-methoxypropoxy)quinazolin-8-yl)oxy)methyl)phenyl)-1H-1,2,3-triazol-1-yl)-3-methylbutanoyl)-N—((R)-1-(4-(1-ethyl-1H-pyrazol-5-yl)phenyl)-2-hydroxyethyl)-4-hydroxypyrrolidine-2-carboxamide] |
| 10 to 100 nM | CCn1nccc1-c1ccc([C@H](CO)NC(=O)[C@@H]2C[C@@H](O)CN2C(=O)[C@H](C(C)C)n2cc(-c3ccc(COc4c(-c5c(C)c(F)cc6[nH]ncc56)c(C5CC5)cc5c(N6CCNCC[C@@H]6C)nc(OC[C@H](C)OC)nc45)cc3)nn2)cc1 [Example 183, (2S,4R)-1-((2S)-2-(4-(4-(((6-cyclopropyl-7-(6-fluoro-5-methyl-1H-indazol-4-yl)-2-((S)-2-methoxypropoxy)-4-((S)-7-methyl-1,4-diazepan-1-yl)quinazolin-8-yl)oxy)methyl)phenyl)-1H-1,2,3-triazol-1-yl)-3-methylbutanoyl)-N—((R)-1-(4-(1-ethyl-1H-pyrazol-5-yl)phenyl)-2-hydroxyethyl)-4-hydroxypyrrolidine-2-carboxamide] |
| < 10 nM | CCn1nccc1-c1ccc([C@@H](NC(=O)[C@@H]2C[C@@H](O)CN2C(=O)[C@H](C(C)C)n2cc(-c3ccc(COc4c(-c5c(C)c(F)cc6[nH]ncc56)c(C5CC5)cc5c(N(C)[C@H]6CCNC6)nc(OC[C@@H]6CCCO6)nc45)cc3)nn2)[C@H](C)O)c2c1CC2 [Example 210, (2S,4R)-1-((2S)-2-(4-(4-(((6-cyclopropyl-7-(6-fluoro-5-methyl-1H-indazol-4-yl)-4-(methyl((S)-pyrrolidin-3-yl)amino)-2-(((S)-tetrahydrofuran-2-yl)methoxy)quinazolin-8-yl)oxy)methyl)phenyl)-1H-1,2,3-triazol-1-yl)-3-methylbutanoyl)-N-((1R,2S)-1-(5-(1-ethyl-1H-pyrazol-5-yl)bicyclo[4.2.0]octa-1(6),2,4-trien-2-yl)-2-hydroxypropyl)-4-hydroxypyrrolidine-2-carboxamide] |
| 10 to 100 nM | CO[C@@H](C)COc1nc(N2C[C@@H]3C[C@H]2CN3)c2cc(C3CC3)c(-c3c(C)c(F)cc4[nH]ncc34)c(OCc3ccc(-c4cn([C@H](C(=O)N5C[C@H](O)C[C@H]5C(=O)N[C@H](C#Cc5cccc6sc(C)nc56)CO)C(C)C)nn4)cc3)c2n1 [Example 117, (2S,4R)-1-((2S)-2-(4-(4-(((4-((1S,4S)-2,5-diazabicyclo[2.2.1]heptan-2-yl)-6-cyclopropyl-7-(6-fluoro-5-methyl-1H-indazol-4-yl)-2-((S)-2-methoxypropoxy)quinazolin-8-yl)oxy)methyl)phenyl)-1H-1,2,3-triazol-1-yl)-3-methylbutanoyl)-4-hydroxy-N—((R)-1-hydroxy-4-(2-methylbenzo[d]thiazol-4-yl)but-3-yn-2-yl)pyrrolidine-2-carboxamide] |
